This is an account of results in patent publication US20110177178A1, “Extracts of Deschampsia antarctica Desv. with antineoplastic activity” (Uxmal S.A., Chile, priority 2007, published 2011).

Structures are written as SMILES.

The test deals with LoVo colorectal cancer cells. The experiment in a line: in vitro growth / proliferation of LoVo colon cancer cells. It is filed as cell-based, human. Particulars: for antineoplastic activity of peaks and peak combinations: 450 uM, FIG. 14. How it is done: FIG. 2. […] The extracts were prepared with water, then dried and dissolved in methanol. Control contains no extract added and the methanol control is a control containing 5% methanol as was used to dissolve the dried aqueous extract. FIG. 3. Effects of ethyl acetate (a and b) and methanol (c and d) extracts at to concentration of 75 ug/ml on LoVo colorectal cancer cells (a and c) and we38 human fetal fibroblast cells (b and d). FIG. 4. […] An assay to test the biological activity of individual peaks was carried out using the same antineoplastic test already evaluated for the whole extract. The main purpose of these studies was to identify who are the peaks with the highest biological activity and to determine a synergistic effect among the different compounds.

For `O=c1cc(-c2ccc(O)c(O)c2)oc2c(C3OC(CO)C(O)C(O)C3OC3OCC(O)C(O)C3O)c(O)cc(O)c12` (single isomer, unassigned; peak 1) [peak 1, 2″-O-β-O arabinopyranoside orientin (orientin traces)], the “antineoplastic activity of peaks and peak combinations” value is given as “only a weak antineoplastic activity”.

For the compound `COc1cc(O)c2c(=O)cc(-c3ccc(O)c(O)c3)oc2c1C1OC(CO)C(O)C(O)C1OC1OCC(O)C(O)C1O` (single isomer, unassigned; peak 2) [peak 2, isowertiajaponine (7-O-methyl orientin-2″-O-arabinopiranoside)], the “antineoplastic activity of peaks and peak combinations” value is reported as “only a weak antineoplastic activity”. Besides, the “concentration at which inhibitory effect of cellular proliferation was observed, converted” value (LoVo, corresponds to 1.7 mM) was found to be 1000 µg/mL. Further, the “concentration at which inhibitory effect of cellular proliferation was observed” value (LoVo, tested at 0.017, 0.17 and 1.7 mM, FIG. 4) was determined as 1.7 mM.
